Assay results as given in US7138361B2, “Herbicidal heterocycles” (E. I. du Pont de Nemours and Company, priority 2000, dated 2006).

How the values were obtained:
Type in all cases: in vivo
wild oat (Avena fatua) = test: Test B postemergence; conditions: Rate 500 g/ha, scale 0 to 100, 0 is no effect, 100 is complete control, 13 to 15 days
How it was run: (§1)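 Pre: seeded pots sprayed, chemical in non-phytotoxic solvent/surfactant mix. Post: plants 2–18 cm, 1–4 leaf, same formulation. Greenhouse 13–15 d; visual % control vs untreated, 0–100 scale.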

[1] = test system: pigweed (Amaranthus retroflexus); test: Test B postemergence; conditions: Rate 500 g/ha, scale 0 to 100, 0 is no effect, 100 is complete control, 13 to 15 days
How it was run: as §1

[2] = test system: lambsquarters (Chenopodium album); test: Test B postemergence; conditions: Rate 500 g/ha, scale 0 to 100, 0 is no effect, 100 is complete control, 13 to 15 days
How it was run: as §1

corn (Zea mays) [3] = test: Test B postemergence; conditions: 13 to 15 days
How it was run: as §1

[4] = test system: wheat (Triticum aestivum); test: Test B postemergence; conditions: Rate 500 g/ha, scale 0 to 100, 0 is no effect, 100 is complete control, 13 to 15 days
How it was run: as §1

[5] = test system: barnyardgrass (Echinochloa crus-galli); test: Test B postemergence; conditions: 13 to 15 days
How it was run: as §1

[6] = test system: crabgrass (Digitaria sanguinalis); test: Test B postemergence; conditions: 13 to 15 days
How it was run: as §1

[7] = test system: morning glory (Ipomoea hederacea); test: Test B postemergence; conditions: Rate 500 g/ha, scale 0 to 100, 0 is no effect, 100 is complete control, 13 to 15 days
How it was run: as §1

[8] = test system: giant foxtail (Setaria faberii); test: Test B postemergence; conditions: 13 to 15 days
How it was run: as §1

[9] = test system: velvetleaf (Abutilon theophrasti); test: Test B postemergence; conditions: Rate 500 g/ha, scale 0 to 100, 0 is no effect, 100 is complete control, 13 to 15 days
How it was run: as §1

[10] = test system: blackgrass (Alopecurus myosuroides); test: Test B postemergence; conditions: 13 to 15 days
How it was run: as §1

[11] = test system: cocklebur (Xanthium strumarium); test: Test B postemergence; conditions: 13 to 15 days
How it was run: as §1

[12] = test system: Surinam grass (Brachiaria decumbens); test: Test B postemergence; conditions: 13 to 15 days
How it was run: as §1

[13] = test system: pigweed (Amaranthus retroflexus); test: Test B preemergence
How it was run: as §1

[14] = test system: lambsquarters (Chenopodium album); test: Test B preemergence
How it was run: as §1

corn (Zea mays) [15] = test: Test B preemergence
How it was run: as §1

[16] = test system: barnyardgrass (Echinochloa crus-galli); test: Test B preemergence
How it was run: as §1

[17] = test system: crabgrass (Digitaria sanguinalis); test: Test B preemergence
How it was run: as §1

rice (Oryza saliva) = test: Test B preemergence
How it was run: as §1

[18] = test system: morning glory (Ipomoea hederacea); test: Test B preemergence
How it was run: as §1

[19] = test system: giant foxtail (Setaria faberii); test: Test B preemergence
How it was run: as §1

[20] = test system: velvetleaf (Abutilon theophrasti); test: Test B preemergence
How it was run: as §1

[21] = test system: cocklebur (Xanthium strumarium); test: Test B preemergence
How it was run: as §1

[22] = test system: Surinam grass (Brachiaria decumbens); test: Test B preemergence
How it was run: as §1

[23] = test system: smallflower flatsedge (Cyperus difformis); test: Test C flooded paddy test; conditions: for Flatsedge plant response rating: Flooded Paddy, scale 0 to 100, 0 no effect, 100 complete control; for Plant response rating, Flatsedge / Plant response rating (scale 0 to 100), Flatsedge: flooded paddy test; for Plant response rating, Flatsedge: scale 0 to 100 (0 no effect, 100 complete control)
How it was run: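 Ratings come from visual comparison with control plants after 12 to 14 days in the greenhouse. Each species was at the 2-leaf stage when the flooded paddy was treated. Scores run from 0, meaning no effect, to 100, meaning complete control.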

Sunflower [24] = test: Test C preemergence; conditions: Rate 250 g/ha, scale 0 to 100, 0 no effect, 100 complete control
Sunflower [25] = test: Test C preemergence; conditions: Rate 500 g/ha, visual evaluation after 12 to 14 days
[26] = Rate 125 g/ha, scale 0 (no effect) to 100 (complete control)
[27] = Rate 500 g/ha, scale 0 to 100, 0 is no effect, 100 is complete control
[28] = Preemergence, Rate 500 g/ha, scale 0 to 100, 0 no effect, 100 complete control
[29] = preemergence, Rate 125 g/ha, scale of 0 to 100 where 0 is no effect and 100 is complete control, 13 to 15 days

CCCC(C)c1ccn(C2OCN(c3cccc(C(F)(F)F)c3)C2=O)n1 (centres unmarked) [Compound 89]
Plant response rating, Wild Oat (wild oat (Avena fatua)): 0 | Plant response rating, Pigweed [1]: 90 | Plant response rating, Lambsquarters [2]: 100 | Plant response rating, Corn (corn (Zea mays) [3]; [26]): 30 | Plant response rating, Corn (corn (Zea mays) [3]; [27]): 0 | Plant response rating, Wheat [4]: 0 | Plant response rating, Barnyardgrass [5, 26]: 0 | Plant response rating, Barnyardgrass [5, 27]: 80 | Plant response rating, Crabgrass [6, 26]: 0 | Plant response rating, Crabgrass [6, 27]: 60 | Plant response rating, Morningglory [7]: 40 | Plant response rating, Foxtail, Giant [8, 26]: 90 | Plant response rating, Foxtail, Giant [8, 27]: 70 | Plant response rating, Velvetleaf [9]: 0 | Plant response rating, Blackgrass [10, 26]: 0 | Plant response rating, Blackgrass [10, 27]: 0 | Plant response rating, Cocklebur [11, 26]: 0 | Plant response rating, Cocklebur [11, 27]: 30 | Plant response rating, Surinam grass [12, 26]: 0 | Plant response rating, Surinam grass [12, 27]: 0 | Plant response rating, Pigweed [13, 28]: 100 | Plant response rating, Pigweed [13, 29]: 90 | Plant response rating, Lambsquarters [14, 28]: 100 | Plant response rating, Lambsquarters [14, 29]: 100 | Plant response rating, Corn (corn (Zea mays) [15]; [28]): 0 | Plant response rating, Corn (corn (Zea mays) [15]; [29]): 0 | Plant response rating, Barnyardgrass [16, 28]: 100 | Plant response rating, Barnyardgrass [16, 29]: 80 | Plant response rating, Crabgrass [17, 28]: 100 | Plant response rating, Crabgrass [17, 29]: 90 | Plant response rating, Rice (rice (Oryza saliva); [28]): 10 | Plant response rating, Rice (rice (Oryza saliva); [29]): 0 | Plant response rating, Morningglory [18, 28]: 0 | Plant response rating, Morningglory [18, 29]: 0 | Plant response rating, Foxtail, Giant [19, 28]: 100 | Plant response rating, Foxtail, Giant [19, 29]: 90 | Plant response rating, Velvetleaf [20, 28]: 0 | Plant response rating, Velvetleaf [20, 29]: 0 | Plant response rating, Cocklebur [21, 28]: 0 | Plant response rating, Cocklebur [21, 29]: 0 | Plant response rating, Surinam grass [22, 28]: 100 | Plant response rating, Surinam grass [22, 29]: 60 | Flatsedge plant response rating ([23]; Rate 250 g/ha): 90 | Flatsedge plant response rating ([23]; Rate 500 g/ha): 100 | Plant response rating, Flatsedge ([23]; Rate 62 g/ha): 80 | Plant response rating, Flatsedge ([23]; Rate 125 g/ha): 90 | Plant response rating, Sunflower (Sunflower [24]): 0 | Plant response rating (0 to 100), Sunflower (Sunflower [25]): 60

CCCC(C)c1ccn(C2OCN(c3cccc(OC(F)(F)F)c3)C2=O)n1 (centres unmarked) [Compound 91]
Plant response rating, Wild Oat (wild oat (Avena fatua)): 0 | Plant response rating, Pigweed [1]: 90 | Plant response rating, Lambsquarters [2]: 100 | Plant response rating, Corn (corn (Zea mays) [3]; [26]): 0 | Plant response rating, Corn (corn (Zea mays) [3]; [27]): 10 | Plant response rating, Wheat [4]: 0 | Plant response rating, Barnyardgrass [5, 26]: 50 | Plant response rating, Barnyardgrass [5, 27]: 90 | Plant response rating, Crabgrass [6, 26]: 40 | Plant response rating, Crabgrass [6, 27]: 90 | Plant response rating, Morningglory [7]: 80 | Plant response rating, Foxtail, Giant [8, 26]: 0 | Plant response rating, Foxtail, Giant [8, 27]: 40 | Plant response rating, Velvetleaf [9]: 30 | Plant response rating, Blackgrass [10, 26]: 0 | Plant response rating, Blackgrass [10, 27]: 0 | Plant response rating, Cocklebur [11, 26]: 20 | Plant response rating, Cocklebur [11, 27]: 80 | Plant response rating, Surinam grass [12, 26]: 10 | Plant response rating, Surinam grass [12, 27]: 10 | Plant response rating, Pigweed [13, 28]: 100 | Plant response rating, Pigweed [13, 29]: 90 | Plant response rating, Lambsquarters [14, 28]: 100 | Plant response rating, Lambsquarters [14, 29]: 100 | Plant response rating, Corn (corn (Zea mays) [15]; [28]): 30 | Plant response rating, Corn (corn (Zea mays) [15]; [29]): 0 | Plant response rating, Barnyardgrass [16, 28]: 100 | Plant response rating, Barnyardgrass [16, 29]: 100 | Plant response rating, Crabgrass [17, 28]: 100 | Plant response rating, Crabgrass [17, 29]: 100 | Plant response rating, Rice (rice (Oryza saliva); [28]): 0 | Plant response rating, Rice (rice (Oryza saliva); [29]): 0 | Plant response rating, Morningglory [18, 28]: 0 | Plant response rating, Morningglory [18, 29]: 0 | Plant response rating, Foxtail, Giant [19, 28]: 100 | Plant response rating, Foxtail, Giant [19, 29]: 90 | Plant response rating, Velvetleaf [20, 28]: 0 | Plant response rating, Velvetleaf [20, 29]: 0 | Plant response rating, Cocklebur [21, 28]: 0 | Plant response rating, Cocklebur [21, 29]: 0 | Plant response rating, Surinam grass [22, 28]: 80 | Plant response rating, Surinam grass [22, 29]: 70 | Flatsedge plant response rating ([23]; Rate 250 g/ha): 100 | Flatsedge plant response rating ([23]; Rate 500 g/ha): 100 | Plant response rating, Flatsedge ([23]; Rate 62 g/ha): 0 | Plant response rating, Flatsedge ([23]; Rate 125 g/ha): 70 | Plant response rating (scale 0 to 100), Flatsedge ([23]; Rate 16 g/ha, visually evaluated after 12 to 14 days, 0 = no effect, 100 = complete control): 0 | Plant response rating (scale 0 to 100), Flatsedge ([23]; under head Rate 16 g/ha, (own rate not given), after 12 to 14 days): 0 | Plant response rating, Sunflower (Sunflower [24]): 0 | Plant response rating (0 to 100), Sunflower (Sunflower [25]): 10

CCCC(C)c1ccn(C2SCN(c3cccc(C(F)(F)F)c3)C2=O)n1 (centres unmarked) [Compound 92]
Plant response rating, Wild Oat (wild oat (Avena fatua)): 0 | Plant response rating, Pigweed [1]: 60 | Plant response rating, Lambsquarters [2]: 90 | Plant response rating, Corn (corn (Zea mays) [3]; [26]): 0 | Plant response rating, Corn (corn (Zea mays) [3]; [27]): 10 | Plant response rating, Wheat [4]: 0 | Plant response rating, Barnyardgrass [5, 26]: 0 | Plant response rating, Barnyardgrass [5, 27]: 70 | Plant response rating, Crabgrass [6, 26]: 10 | Plant response rating, Crabgrass [6, 27]: 50 | Plant response rating, Morningglory [7]: 50 | Plant response rating, Foxtail, Giant [8, 26]: 0 | Plant response rating, Foxtail, Giant [8, 27]: 30 | Plant response rating, Velvetleaf [9]: 20 | Plant response rating, Blackgrass [10, 26]: 0 | Plant response rating, Blackgrass [10, 27]: 0 | Plant response rating, Cocklebur [11, 26]: 20 | Plant response rating, Cocklebur [11, 27]: 80 | Plant response rating, Surinam grass [12, 26]: 0 | Plant response rating, Surinam grass [12, 27]: 10 | Plant response rating, Pigweed [13, 28]: 100 | Plant response rating, Pigweed [13, 29]: 80 | Plant response rating, Lambsquarters [14, 28]: 100 | Plant response rating, Lambsquarters [14, 29]: 100 | Plant response rating, Corn (corn (Zea mays) [15]; [28]): 0 | Plant response rating, Corn (corn (Zea mays) [15]; [29]): 0 | Plant response rating, Barnyardgrass [16, 28]: 100 | Plant response rating, Barnyardgrass [16, 29]: 30 | Plant response rating, Crabgrass [17, 28]: 100 | Plant response rating, Crabgrass [17, 29]: 50 | Plant response rating, Rice (rice (Oryza saliva); [28]): 0 | Plant response rating, Rice (rice (Oryza saliva); [29]): 0 | Plant response rating, Morningglory [18, 28]: 0 | Plant response rating, Morningglory [18, 29]: 0 | Plant response rating, Foxtail, Giant [19, 28]: 100 | Plant response rating, Foxtail, Giant [19, 29]: 50 | Plant response rating, Velvetleaf [20, 28]: 0 | Plant response rating, Velvetleaf [20, 29]: 0 | Plant response rating, Cocklebur [21, 28]: 0 | Plant response rating, Cocklebur [21, 29]: 0 | Plant response rating, Surinam grass [22, 28]: 70 | Plant response rating, Surinam grass [22, 29]: 0 | Flatsedge plant response rating ([23]; Rate 250 g/ha): 100 | Flatsedge plant response rating ([23]; Rate 500 g/ha): 100 | Plant response rating, Flatsedge ([23]; Rate 62 g/ha): 90 | Plant response rating, Flatsedge ([23]; Rate 125 g/ha): 100 | Plant response rating, Sunflower (Sunflower [24]): 40 | Plant response rating (0 to 100), Sunflower (Sunflower [25]): 55
